{"source": "patent US20110020518A1", "about": "“TASTE MODIFYING PRODUCT” (priority 2008, published 2011)"}
{"test_system": "kokumi/umami taste", "assay": "Evaluation of alkylpyridines: taste panel of 8 trained panelists, samples in 0.3% aqueous NaCl", "format": "in vivo", "conditions": "10 ppm in 0.3% aqueous NaCl; scale 0 (no effect) to 10 (extremely strong kokumi/umami effect)", "description": "(§1) Alkylpyridines shown in the following table were prepared by firstly being diluted into propylene glycol solvent in order to provide a 10% solution of the alkylpyridine. Each solution was then diluted using a 0.3% aqueous solution of NaCl, heated if necessary to achieve better dissolution, to a concentration of between 10 ppm and 30 ppm of the alkylpyridine. The samples were then stored at ambient temperature.\n(§2) A panel consisting of 8 trained panelists evaluated the samples for taste properties on a scale of 0 to 10 where 0 denoted no kokumi/umami effect and 10 denoted extremely strong kokumi/umami effect."}
{"smiles": "CCc1ccccn1", "note": "[2-Ethylpyridine, reference compound]", "Kokumi/Umami taste intensity": 0}
{"smiles": "CCCCCCc1ccccn1", "note": "[2-Hexylpyridine]", "Kokumi/Umami taste intensity": 7}
{"smiles": "CCCc1ccccn1", "note": "[2-Propylpyridine, reference compound]", "Kokumi/Umami taste intensity": 0}
{"smiles": "CCCCCCCc1ccccn1", "note": "[Compound of ex. 1, 2-heptylpyridine]", "Kokumi/Umami taste intensity": 7}
{"smiles": "CCCCCCCCc1ccccn1", "note": "[Compound of ex. 2, 2-octylpyridine]", "Kokumi/Umami taste intensity": 2}
{"smiles": "CCCCCCCCCc1ccccn1", "note": "[Compound of ex. 3, 2-nonylpyridine]", "Kokumi/Umami taste intensity": 1}
{"smiles": "CCCCCCCCCCCc1ccccn1", "note": "[Compound of ex. 4, 2-undecylpyridine]", "Kokumi/Umami taste intensity": 0}
{"smiles": "CCCCCCCCCCCCc1ccccn1", "note": "[Compound of ex. 5, 2-dodecylpyridine]", "Kokumi/Umami taste intensity": 0}
{"smiles": "CCCCCc1cc(C)ccn1", "note": "[Compound of ex. 6, 4-methyl-2-pentylpyridine]", "Kokumi/Umami taste intensity": 0}
{"test_system": "kokumi/umami taste", "assay": "Evaluation of alkylpyridines: taste panel of 8 trained panelists, samples in 0.3% aqueous NaCl", "format": "in vivo", "conditions": "20 ppm in 0.3% aqueous NaCl; scale 0 (no effect) to 10 (extremely strong kokumi/umami effect)", "description": "as §1, §2"}
{"smiles": "Cc1ccccn1", "note": "[2-picoline, reference compound]", "Kokumi/Umami taste intensity": 0}
{"test_system": "kokumi/umami taste", "assay": "Evaluation of alkylpyridines: taste panel of 8 trained panelists, samples in 0.3% aqueous NaCl", "format": "in vivo", "conditions": "30 ppm in 0.3% aqueous NaCl; scale 0 (no effect) to 10 (extremely strong kokumi/umami effect)", "description": "as §1, §2"}
{"smiles": "c1ccncc1", "note": "[Pyridine, reference compound]", "Kokumi/Umami taste intensity": 0}
